Measurements: patent US20060039867A1, “Method for treating sleep-related breathing disorders with setiptiline” (Cypress Bioscience, Inc., priority 2004, published 2006)
Like-named read-outs stand apart in the source and are kept apart here.

Legend:
[1] = target: α1, non-selective; assay: Receptor binding, α1 non-selective; settings: read-out: Setiptiline (Ki)
Text: (§1) 5HT3 antagonists are used to treat various maladies of the gastrointestinal tract, such as irritable bowel syndrome-diarrhea predominant and nausea and vomiting associated with chemotherapy. One potentially serious side effect of strong 5HT3 antagonists is constipation, which in some cases may be so severe as to lead to ischemic colitis.

[2] = target: α2, non-selective; assay: Receptor binding, α2 non-selective; settings: read-out: Setiptiline (Ki)
Text: as §1

[3] = target: 5HT2, non-selective; assay: Receptor binding, 5HT2 non-selective; settings: 5HT2, non-selective receptor; read-out: Setiptiline (Ki)
Text: as §1

[4] = target: T1, 5HT2C (Homo sapiens, UniProt P28335); assay: Receptor binding, 5HT2C; settings: 5HT2C receptor; read-out: Setiptiline (Ki)
T1 sequence (P28335 33-458, species assumed): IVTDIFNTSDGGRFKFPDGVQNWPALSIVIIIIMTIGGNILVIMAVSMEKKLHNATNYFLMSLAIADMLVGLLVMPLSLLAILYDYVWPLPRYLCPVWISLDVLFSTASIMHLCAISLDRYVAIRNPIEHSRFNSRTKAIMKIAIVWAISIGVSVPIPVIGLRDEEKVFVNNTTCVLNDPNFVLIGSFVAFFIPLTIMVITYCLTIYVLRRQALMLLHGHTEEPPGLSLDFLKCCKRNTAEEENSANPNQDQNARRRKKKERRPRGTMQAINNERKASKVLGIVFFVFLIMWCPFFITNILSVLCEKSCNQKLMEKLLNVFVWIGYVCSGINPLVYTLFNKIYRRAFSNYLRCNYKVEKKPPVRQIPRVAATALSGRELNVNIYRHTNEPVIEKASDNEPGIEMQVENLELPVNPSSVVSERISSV
Text: as §1

[5] = target: T2, 5HT3 (Homo sapiens, UniProt P46098); assay: Receptor binding, 5HT3; settings: 5HT3 receptor; read-out: Setiptiline (Ki)
T2 sequence (P46098 24-478): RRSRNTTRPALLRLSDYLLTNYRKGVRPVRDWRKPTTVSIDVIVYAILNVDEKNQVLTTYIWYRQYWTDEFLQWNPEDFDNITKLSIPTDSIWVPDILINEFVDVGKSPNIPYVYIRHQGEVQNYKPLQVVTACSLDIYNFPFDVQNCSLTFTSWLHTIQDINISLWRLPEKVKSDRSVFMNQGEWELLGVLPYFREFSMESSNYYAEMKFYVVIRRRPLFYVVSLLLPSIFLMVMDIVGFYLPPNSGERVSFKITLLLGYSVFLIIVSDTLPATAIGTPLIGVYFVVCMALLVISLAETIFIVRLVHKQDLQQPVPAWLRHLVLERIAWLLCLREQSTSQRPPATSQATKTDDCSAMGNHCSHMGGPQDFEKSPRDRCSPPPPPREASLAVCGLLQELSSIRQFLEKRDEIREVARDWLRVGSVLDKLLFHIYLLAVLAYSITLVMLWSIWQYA
Text: as §1

[6] = target: T3, Muscarinic M1 (Homo sapiens, UniProt P11229); assay: Receptor binding, Muscarinic M1; settings: read-out: Setiptiline (Ki)
T3 sequence (P11229 1-460): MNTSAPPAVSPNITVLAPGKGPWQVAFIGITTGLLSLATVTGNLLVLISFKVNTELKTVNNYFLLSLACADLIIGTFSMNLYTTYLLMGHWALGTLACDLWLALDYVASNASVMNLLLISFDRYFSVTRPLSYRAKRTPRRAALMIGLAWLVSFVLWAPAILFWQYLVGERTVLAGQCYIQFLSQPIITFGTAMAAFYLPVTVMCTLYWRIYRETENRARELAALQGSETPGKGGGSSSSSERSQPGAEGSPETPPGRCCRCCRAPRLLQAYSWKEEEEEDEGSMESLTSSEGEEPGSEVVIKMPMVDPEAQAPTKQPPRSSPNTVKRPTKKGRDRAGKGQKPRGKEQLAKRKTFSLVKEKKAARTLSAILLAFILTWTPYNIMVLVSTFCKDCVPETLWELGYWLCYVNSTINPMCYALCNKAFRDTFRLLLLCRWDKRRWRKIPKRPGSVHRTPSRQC
Text: as §1

[7] = target: NET (Homo sapiens, UniProt P23975); assay: Receptor binding, NET; settings: read-out: Setiptiline (Ki)
NET, sequence (P23975 whole entry): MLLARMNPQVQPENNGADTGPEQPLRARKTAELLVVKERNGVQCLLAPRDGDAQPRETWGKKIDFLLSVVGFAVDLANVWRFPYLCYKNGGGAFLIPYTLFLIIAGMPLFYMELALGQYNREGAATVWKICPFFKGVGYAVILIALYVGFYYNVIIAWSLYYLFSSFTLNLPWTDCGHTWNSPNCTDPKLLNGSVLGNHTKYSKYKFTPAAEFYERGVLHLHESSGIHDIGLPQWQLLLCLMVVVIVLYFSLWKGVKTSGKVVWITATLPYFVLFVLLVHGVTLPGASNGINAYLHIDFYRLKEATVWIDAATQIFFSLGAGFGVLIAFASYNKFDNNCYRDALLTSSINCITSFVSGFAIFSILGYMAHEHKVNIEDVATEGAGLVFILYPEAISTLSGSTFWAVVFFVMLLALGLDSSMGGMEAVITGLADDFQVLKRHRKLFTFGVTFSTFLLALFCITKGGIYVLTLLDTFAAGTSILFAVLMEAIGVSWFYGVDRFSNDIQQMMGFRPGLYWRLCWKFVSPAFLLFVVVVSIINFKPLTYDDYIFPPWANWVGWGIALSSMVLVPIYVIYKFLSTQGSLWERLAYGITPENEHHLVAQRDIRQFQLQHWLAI
Text: as §1

[8] = target: SERT (Homo sapiens, UniProt P31645); assay: Receptor binding, SERT; settings: read-out: Setiptiline (Ki)
SERT, sequence (P31645 whole entry, species assumed): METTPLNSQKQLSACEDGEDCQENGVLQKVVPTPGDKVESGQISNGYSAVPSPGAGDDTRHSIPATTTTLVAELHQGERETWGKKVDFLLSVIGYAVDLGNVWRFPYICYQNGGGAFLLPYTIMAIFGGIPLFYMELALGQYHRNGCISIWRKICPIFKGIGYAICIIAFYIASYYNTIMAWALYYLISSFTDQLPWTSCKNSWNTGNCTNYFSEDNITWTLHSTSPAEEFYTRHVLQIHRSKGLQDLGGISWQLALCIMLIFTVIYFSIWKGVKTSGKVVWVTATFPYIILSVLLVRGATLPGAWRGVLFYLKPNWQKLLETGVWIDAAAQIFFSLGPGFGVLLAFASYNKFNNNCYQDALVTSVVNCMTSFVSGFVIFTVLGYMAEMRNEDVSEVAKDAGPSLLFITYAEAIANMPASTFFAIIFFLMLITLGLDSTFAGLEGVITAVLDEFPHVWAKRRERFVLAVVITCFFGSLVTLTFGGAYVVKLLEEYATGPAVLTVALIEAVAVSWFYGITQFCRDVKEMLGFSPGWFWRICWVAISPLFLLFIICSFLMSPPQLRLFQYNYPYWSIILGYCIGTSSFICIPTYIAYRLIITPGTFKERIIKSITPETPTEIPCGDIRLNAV
Text: as §1

[9] = target: T4, 5HT1A sertotonin receptor (Homo sapiens, UniProt P08908); assay: Affinity for the 5HT1A serotonin receptor; format: binding; settings: read-out: affinity for the 5HT1A sertotonin receptor (pKi) (converted)
T4 sequence (P08908 1-422): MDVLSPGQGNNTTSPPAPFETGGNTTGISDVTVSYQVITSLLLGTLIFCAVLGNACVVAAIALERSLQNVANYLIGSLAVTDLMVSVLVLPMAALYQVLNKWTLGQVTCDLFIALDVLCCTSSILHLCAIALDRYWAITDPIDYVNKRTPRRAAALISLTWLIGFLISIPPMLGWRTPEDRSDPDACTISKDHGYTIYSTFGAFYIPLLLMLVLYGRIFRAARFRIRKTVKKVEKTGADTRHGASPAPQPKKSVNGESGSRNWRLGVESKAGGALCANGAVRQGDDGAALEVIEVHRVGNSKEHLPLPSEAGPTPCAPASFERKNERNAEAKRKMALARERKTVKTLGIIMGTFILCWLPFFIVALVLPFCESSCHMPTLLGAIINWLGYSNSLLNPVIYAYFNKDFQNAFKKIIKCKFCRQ

[10] = target: α1, non-selective; settings: read-out: Mirtazapine (Ki); α1, non-selective receptor; from de Boer et al., 1996; cited from earlier work
[11] = target: α2, non-selective; settings: read-out: Mirtazapine (Ki); α2, non-selective receptor; from de Boer et al., 1996; cited from earlier work
[12] = target: 5HT2, non-selective; settings: read-out: Mirtazapine (Ki); 5HT2, non-selective receptor; from de Boer et al., 1996; cited from earlier work
[13] = target: T1, 5HT2C; settings: read-out: Mirtazapine (Ki); 5HT2C receptor; from de Boer et al., 1996; cited from earlier work
[14] = target: T2, 5HT3; settings: read-out: Mirtazapine (Ki); 5HT3 receptor; from de Boer et al., 1996; cited from earlier work

## CN1CCC2=C(C1)c1ccccc1Cc1ccccc12
[1]
  Ki: 0.144 µM
[2]
  Ki: 0.093 µM
[3]
  Ki: 0.00071 µM
[4]
  Ki: 0.00047 µM
[5]
  Ki: 0.757 µM
[6]
  Ki: 0.258 µM
[7]
  Ki: 1.96 µM
[8]
  Ki: > 10 µM

## CC1CN(c2cccc(Cl)c2)CCN1CCCn1nc2ccccn2c1=O (centres unmarked) [MER 810]
[9]
  Ki: 0.0851 µM

## CN1CCN2c3ncccc3Cc3ccccc3C2C1 (centres unmarked) [Mirtazapine]
[10]
  Ki: 0.501 µM
[11]
  Ki: 0.05 µM
[12]
  Ki: 0.0063 µM
[13]
  Ki: 0.013 µM
[14]
  Ki: 0.079 µM
